Reference: the Kinase Knowledgebase extract (Sharma et al. 2016)

Tests used:
[1] = target: PIK3CB (Human) (UniProt P42338); assay: Enzyme Assay
[2] = target: PIK3CD (Human) (UniProt O00329); assay: Enzyme Assay
[3] = target: PIK3CG (human) (UniProt P48736); assay: Enzyme Assay
[4] = target: PIK3CD (Human) (UniProt O00329); assay: Cell-Based Assay; conditions: raji

PIK3CD (Human), sequence (O00329 whole entry, looked up): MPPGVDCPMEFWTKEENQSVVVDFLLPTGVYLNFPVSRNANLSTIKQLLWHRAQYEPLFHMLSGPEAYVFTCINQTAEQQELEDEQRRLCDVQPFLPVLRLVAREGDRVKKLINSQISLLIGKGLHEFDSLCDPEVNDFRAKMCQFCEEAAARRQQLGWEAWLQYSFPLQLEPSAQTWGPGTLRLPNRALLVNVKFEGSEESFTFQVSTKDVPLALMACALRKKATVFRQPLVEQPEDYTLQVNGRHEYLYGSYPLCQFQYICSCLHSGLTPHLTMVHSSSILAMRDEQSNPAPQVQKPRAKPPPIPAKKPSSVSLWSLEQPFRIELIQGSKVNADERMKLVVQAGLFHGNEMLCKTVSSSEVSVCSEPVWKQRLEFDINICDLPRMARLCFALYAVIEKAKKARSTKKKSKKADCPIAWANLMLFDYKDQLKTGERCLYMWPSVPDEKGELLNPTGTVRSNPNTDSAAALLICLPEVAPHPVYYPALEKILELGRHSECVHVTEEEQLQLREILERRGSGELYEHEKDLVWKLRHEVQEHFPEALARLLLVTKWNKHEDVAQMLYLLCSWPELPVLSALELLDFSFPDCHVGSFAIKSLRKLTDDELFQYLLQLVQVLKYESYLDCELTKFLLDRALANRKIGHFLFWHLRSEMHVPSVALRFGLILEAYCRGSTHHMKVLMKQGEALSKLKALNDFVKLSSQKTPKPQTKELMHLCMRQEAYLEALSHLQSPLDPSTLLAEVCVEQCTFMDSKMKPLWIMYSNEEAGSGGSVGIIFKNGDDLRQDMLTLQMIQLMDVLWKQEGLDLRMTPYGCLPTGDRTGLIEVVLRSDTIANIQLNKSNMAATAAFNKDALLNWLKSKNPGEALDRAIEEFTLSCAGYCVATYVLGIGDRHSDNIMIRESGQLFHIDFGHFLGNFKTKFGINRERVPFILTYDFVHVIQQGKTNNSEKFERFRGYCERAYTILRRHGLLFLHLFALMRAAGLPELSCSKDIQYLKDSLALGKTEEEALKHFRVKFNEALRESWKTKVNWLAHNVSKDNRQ
PIK3CG (human), sequence (P48736 whole entry, looked up): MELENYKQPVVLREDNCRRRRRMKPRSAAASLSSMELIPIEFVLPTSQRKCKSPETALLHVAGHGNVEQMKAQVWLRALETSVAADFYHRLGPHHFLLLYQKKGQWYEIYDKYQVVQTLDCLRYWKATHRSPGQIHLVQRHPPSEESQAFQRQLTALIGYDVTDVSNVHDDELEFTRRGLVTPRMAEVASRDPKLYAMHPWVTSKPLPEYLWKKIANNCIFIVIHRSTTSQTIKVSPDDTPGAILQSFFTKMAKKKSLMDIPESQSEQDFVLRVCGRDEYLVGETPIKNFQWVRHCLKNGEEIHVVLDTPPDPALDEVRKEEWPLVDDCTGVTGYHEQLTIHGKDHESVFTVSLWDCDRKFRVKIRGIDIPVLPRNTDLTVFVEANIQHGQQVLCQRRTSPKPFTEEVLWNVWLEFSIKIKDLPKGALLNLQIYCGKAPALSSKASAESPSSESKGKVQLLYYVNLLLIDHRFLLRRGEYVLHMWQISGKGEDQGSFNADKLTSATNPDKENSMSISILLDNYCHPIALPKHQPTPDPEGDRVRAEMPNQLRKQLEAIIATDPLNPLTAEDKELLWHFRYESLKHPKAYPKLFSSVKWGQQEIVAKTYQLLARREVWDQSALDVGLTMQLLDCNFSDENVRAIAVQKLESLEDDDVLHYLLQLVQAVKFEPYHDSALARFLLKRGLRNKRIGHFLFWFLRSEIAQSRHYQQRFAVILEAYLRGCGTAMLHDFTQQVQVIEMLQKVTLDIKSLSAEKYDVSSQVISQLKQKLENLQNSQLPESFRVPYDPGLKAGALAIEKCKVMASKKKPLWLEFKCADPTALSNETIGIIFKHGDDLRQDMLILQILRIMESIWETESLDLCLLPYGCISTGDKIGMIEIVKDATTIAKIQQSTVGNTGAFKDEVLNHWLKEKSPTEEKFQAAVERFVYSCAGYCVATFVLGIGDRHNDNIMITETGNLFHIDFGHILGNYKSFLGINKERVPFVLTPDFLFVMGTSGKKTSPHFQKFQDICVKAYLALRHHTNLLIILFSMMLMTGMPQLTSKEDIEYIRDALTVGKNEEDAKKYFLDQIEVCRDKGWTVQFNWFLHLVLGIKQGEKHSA
PIK3CB (Human), sequence (P42338 whole entry, looked up): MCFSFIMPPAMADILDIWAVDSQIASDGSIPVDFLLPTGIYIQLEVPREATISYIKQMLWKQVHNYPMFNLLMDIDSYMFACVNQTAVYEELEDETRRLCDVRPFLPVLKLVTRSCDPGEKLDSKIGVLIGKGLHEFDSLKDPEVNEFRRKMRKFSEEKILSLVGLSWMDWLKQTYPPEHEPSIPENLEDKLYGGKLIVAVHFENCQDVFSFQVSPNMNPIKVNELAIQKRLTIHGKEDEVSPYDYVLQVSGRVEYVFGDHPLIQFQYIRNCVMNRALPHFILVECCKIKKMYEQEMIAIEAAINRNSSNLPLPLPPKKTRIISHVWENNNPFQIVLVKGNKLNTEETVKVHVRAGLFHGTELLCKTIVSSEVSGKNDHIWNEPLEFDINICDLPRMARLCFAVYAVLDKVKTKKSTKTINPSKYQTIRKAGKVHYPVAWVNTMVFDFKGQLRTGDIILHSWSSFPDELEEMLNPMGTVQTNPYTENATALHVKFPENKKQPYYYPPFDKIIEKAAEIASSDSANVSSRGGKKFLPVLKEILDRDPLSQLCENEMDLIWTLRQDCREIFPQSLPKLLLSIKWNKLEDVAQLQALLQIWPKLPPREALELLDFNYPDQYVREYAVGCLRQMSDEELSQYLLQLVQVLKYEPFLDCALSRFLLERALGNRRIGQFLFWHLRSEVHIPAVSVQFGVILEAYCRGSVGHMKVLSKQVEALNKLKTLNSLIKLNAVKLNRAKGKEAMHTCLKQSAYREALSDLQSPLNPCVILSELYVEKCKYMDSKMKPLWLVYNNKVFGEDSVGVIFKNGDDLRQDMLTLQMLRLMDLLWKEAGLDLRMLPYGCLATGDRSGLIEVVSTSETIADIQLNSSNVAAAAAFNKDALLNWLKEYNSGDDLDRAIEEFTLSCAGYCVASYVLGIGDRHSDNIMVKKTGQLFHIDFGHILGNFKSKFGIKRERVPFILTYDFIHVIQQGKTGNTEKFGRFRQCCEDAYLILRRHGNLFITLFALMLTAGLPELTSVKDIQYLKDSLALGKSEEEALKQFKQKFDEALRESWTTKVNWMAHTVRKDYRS

| Compound | IC50 [1] | IC50 [2] | IC50 [3] | IC50 [4] |
| --- | --- | --- | --- | --- |
| Cc1ccncc1C#Cc1cccc2cc([C@H](C)NC(=O)c3c(N)nn4cccnc34)n(-c3ccccc3)c(=O)c12 | 5 to 10 µM | 5 to 10 µM | 0.5 to 1 µM | 1 to 10 µM |
| CC(C)C#Cc1cccc2nc([C@H](C)NC(=O)c3c(N)nn4cccnc34)n(-c3ccccc3)c(=O)c12 | 5 to 10 µM | 5 to 10 µM | 0.5 to 1 µM | 0.5 to 1 µM |
| C[C@H](O)C#Cc1cccc2cc([C@H](C)NC(=O)c3c(N)nn4cccnc34)n(-c3ccccc3)c(=O)c12 | 1 to 5 µM | 1 to 5 µM | 0.001 to 0.1 µM | 0.1 to 0.5 µM |
| C#Cc1cccc2nc([C@H](C)NC(=O)c3c(N)nn4cccnc34)n(-c3ccc(F)c(F)c3)c(=O)c12 | 5 to 10 µM | 5 to 10 µM | 0.1 to 0.5 µM | 0.1 to 0.5 µM |
| C[C@H](NC(=O)c1c(N)nn2cccnc12)c1cc2cccc(C#CC3CCCC3)c2c(=O)n1-c1ccccc1 | 5 to 10 µM | 5 to 10 µM | 1 to 5 µM | 1 to 10 µM |
| C[C@H](NC(=O)c1c(N)nn2cccnc12)c1cc2cccc(C#Cc3cc[nH]c(=O)c3)c2c(=O)n1-c1ccccc1 | 5 to 10 µM | 5 to 10 µM | 0.1 to 0.5 µM | 0.1 to 0.5 µM |
| COC(C)C#Cc1cccc2cc([C@H](C)NC(=O)c3c(N)nn4cccnc34)n(-c3ccccc3)c(=O)c12 (stereo partly specified) | 5 to 10 µM | 5 to 10 µM | 0.1 to 0.5 µM | 1 to 10 µM |
| Cc1cnc(C(=O)N[C@@H](C)c2cc3cccc(C#Cc4cnn(C)c4)c3c(=O)n2-c2ccccc2)c(N)n1 | 5 to 10 µM | 5 to 10 µM | 1 to 5 µM | 1 to 10 µM |
| C[C@H](NC(=O)c1c(N)nn2cccnc12)c1cc2cccc(C#CC(C)(C)N)c2c(=O)n1-c1ccccc1 | 5 to 10 µM | 5 to 10 µM | 0.5 to 1 µM | 1 to 10 µM |
| C#Cc1cccc2nc([C@H](C)NC(=O)c3c(N)nn4cccnc34)n(-c3ccccc3)c(=O)c12 | 1 to 5 µM | 1 to 5 µM | 0.001 to 0.1 µM | 0.001 to 0.1 µM |
| Cc1c(C#Cc2cccc3cc([C@H](C)NC(=O)c4c(N)nn5cccnc45)n(-c4ccccc4)c(=O)c23)cnn1C | 5 to 10 µM | 5 to 10 µM | 0.1 to 0.5 µM | 0.5 to 1 µM |
| Cc1ccc(C#Cc2cccc3cc([C@H](C)NC(=O)c4c(N)nn5cccnc45)n(-c4ccccc4)c(=O)c23)cn1 | 5 to 10 µM | 5 to 10 µM | 0.001 to 0.1 µM | 0.5 to 1 µM |
| COCC#Cc1cccc2cc([C@H](C)NC(=O)c3c(N)nn4cccnc34)n(-c3ccccc3)c(=O)c12 | 1 to 5 µM | 1 to 5 µM | 0.001 to 0.1 µM | 0.1 to 0.5 µM |
| C[C@H](NC(=O)c1c(N)nn2cccnc12)c1cc2cccc(NC(=O)c3cnn(C)c3)c2c(=O)n1-c1ccccc1 | 5 to 10 µM | 5 to 10 µM | 1 to 5 µM | 1 to 10 µM |
| C[C@H](NC(=O)c1c(N)nn2cccnc12)c1cc2cccc(C#CC3CCOC3)c2c(=O)n1-c1ccccc1 (stereo partly specified) | 5 to 10 µM | 5 to 10 µM | 0.001 to 0.1 µM | 0.1 to 0.5 µM |
| C[C@H](NC(=O)c1c(N)nn2cccnc12)c1cc2cccc(CC(=O)c3cnn(C)c3)c2c(=O)n1-c1ccccc1 | 5 to 10 µM | 5 to 10 µM | 0.5 to 1 µM | 0.1 to 0.5 µM |
| C[C@H](NC(=O)c1c(N)nn2cccnc12)c1cc2cccc(C#Cc3cn[nH]c3)c2c(=O)n1-c1ccccc1 | 1 to 5 µM | 5 to 10 µM | 0.001 to 0.1 µM | 0.1 to 0.5 µM |
| COc1cnc(C(=O)N[C@@H](C)c2cc3cccc(C#Cc4cnn(C)c4)c3c(=O)n2-c2ccccc2)c(N)n1 | 5 to 10 µM | 5 to 10 µM | > 5 µM | 1 to 10 µM |
| C[C@H](NC(=O)c1c(N)nn2cccnc12)c1cc2cccc(C#Cc3ccncc3)c2c(=O)n1-c1ccccc1 | 5 to 10 µM | 5 to 10 µM | 0.1 to 0.5 µM | 0.1 to 0.5 µM |
| CC#Cc1cccc2cc(C(C)NC(=O)c3c(N)nn4cccnc34)c(-c3ccccc3)nc12 (stereo unspecified) | 1 to 5 µM | 1 to 5 µM | 0.1 to 0.5 µM | 0.001 to 0.1 µM |
| COc1ncc(C#Cc2cccc3cc([C@H](C)NC(=O)c4c(N)nn5cccnc45)n(-c4ccccc4)c(=O)c23)cn1 | 5 to 10 µM | 5 to 10 µM | 0.1 to 0.5 µM | 0.1 to 0.5 µM |
| Cc1ncsc1C#Cc1cccc2cc([C@H](C)NC(=O)c3c(N)nn4cccnc34)n(-c3ccccc3)c(=O)c12 | 5 to 10 µM | 5 to 10 µM | 1 to 5 µM | 1 to 10 µM |
| C[C@H](NC(=O)c1c(N)nn2cccnc12)c1cc2cccc(C#CC3CCOCC3)c2c(=O)n1-c1ccccc1 | 5 to 10 µM | 5 to 10 µM | 0.1 to 0.5 µM | 0.001 to 0.1 µM |
| C[C@H](NC(=O)c1c(N)nn2cccnc12)c1cc2cccc(C#Cc3cscn3)c2c(=O)n1-c1ccccc1 | 1 to 5 µM | 1 to 5 µM | 0.001 to 0.1 µM | 0.1 to 0.5 µM |
